Source: the supplement of paper PMC10307832

How the values were obtained:
Experiment in all cases: relative viability (nuclei count vs DMSO), 5 days (fraction); higher = more cells survive
Bemcentinib + Linsitinib = compound: Nc1nc(Nc2ccc3c(c2)CC[C@@H](N2CCCC2)CC3)nn1-c1cc2c(nn1)-c1ccccc1CCC2 [Bemcentinib] + C[C@]1(O)C[C@@H](c2nc(-c3ccc4ccc(-c5ccccc5)nc4c3)c3c(N)nccn32)C1 [Linsitinib] (partner 1 µM)
Summary of the method: (§1)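 Relative viability was taken as the ratio of nuclei in treated wells to nuclei in vehicle wells. Lung cancer cell lines in 1536-well plates received compounds by pin tool one day after seeding, either one drug alone or a fixed anchor-drug dose plus five library-drug doses (not always all listed) in √10 steps. Nuclei were counted on 4× images after 5 days of treatment, and values are medians of duplicate plates.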

Axitinib + Vorinostat = compound: CNC(=O)c1ccccc1Sc1ccc2c(/C=C/c3ccccn3)n[nH]c2c1 [Axitinib] + O=C(CCCCCCC(=O)Nc1ccccc1)NO [Vorinostat] (partner 1 µM)
Summary of the method: as §1

Axitinib + Linsitinib = compound: CNC(=O)c1ccccc1Sc1ccc2c(/C=C/c3ccccn3)n[nH]c2c1 [Axitinib] + C[C@]1(O)C[C@@H](c2nc(-c3ccc4ccc(-c5ccccc5)nc4c3)c3c(N)nccn32)C1 [Linsitinib] (partner 1 µM)
Summary of the method: as §1

Axitinib + Palbociclib = compound: CNC(=O)c1ccccc1Sc1ccc2c(/C=C/c3ccccn3)n[nH]c2c1 [Axitinib] + CC(=O)c1c(C)c2cnc(Nc3ccc(N4CCNCC4)cn3)nc2n(C2CCCC2)c1=O [Palbociclib] (partner 0.5 µM)
Summary of the method: as §1

Cell Line	relative viability (Bemcentinib + Linsitinib; first compound 0.04 µM)	relative viability (Bemcentinib + Linsitinib; first compound 0.1265 µM)	relative viability (Bemcentinib + Linsitinib; first compound 0.4 µM)	relative viability (Bemcentinib + Linsitinib; first compound 1.265 µM)	relative viability (Bemcentinib + Linsitinib; first compound 4 µM)	relative viability (Axitinib + Vorinostat; first compound 0.005 µM)	relative viability (Axitinib + Vorinostat; first compound 0.01581 µM)	relative viability (Axitinib + Vorinostat; first compound 0.05 µM)	relative viability (Axitinib + Vorinostat; first compound 0.1581 µM)	relative viability (Axitinib + Vorinostat; first compound 0.5 µM)	relative viability (Axitinib + Linsitinib; first compound 0.005 µM)	relative viability (Axitinib + Linsitinib; first compound 0.01581 µM)	relative viability (Axitinib + Linsitinib; first compound 0.05 µM)	relative viability (Axitinib + Linsitinib; first compound 0.1581 µM)	relative viability (Axitinib + Linsitinib; first compound 0.5 µM)	relative viability (Axitinib + Palbociclib; first compound 0.005 µM)	relative viability (Axitinib + Palbociclib; first compound 0.01581 µM)	relative viability (Axitinib + Palbociclib; first compound 0.05 µM)	relative viability (Axitinib + Palbociclib; first compound 0.1581 µM)	relative viability (Axitinib + Palbociclib; first compound 0.5 µM)
BEN	0.915	1.09	0.986	0.886	0.907	0.609	0.637	0.635	0.592	0.551	1.04	1.01	0.689	0.803	0.928	0.474	0.433	0.459	0.518	0.515
LCLC-103H	1.17	1.09	1.11	1.27	1.22	0.767	0.801	0.808	0.75	0.759	1.27	1.08	1.05	1.05	1.03	0.475	0.464	0.493	0.474	0.451
NCI-H520	0.85	0.982	1.08	1.01	1.18	0.797	0.678	0.686	0.691	0.801	0.972	0.996	0.989	0.84	1.03	0.242	0.19	0.205	0.194	0.187
NCI-H1975	0.981	1.03	1.03	1.06	1.02	0.704	0.729	0.715	0.644	0.733	1.17	1.1	1.09	0.988	1.18	0.694	0.586	0.507	0.541	0.672
NCI-H1355	0.858	0.98	0.848	0.903	0.99	0.661	0.575	0.69	0.604	0.542	0.834	0.811	0.845	0.865	0.819	0.415	0.443	0.426	0.414	0.409
IA-LM	0.661	0.962	0.654	0.697	0.713	1.02	1.02	0.974	0.934	0.973	0.546	0.437	0.564	0.665	0.542					
H3255	0.89	1.22	1.04	1.02	0.888	0.806		0.927	0.844	0.796	1.08	0.797	0.83	0.917	1.03	0.332	0.294	0.316	0.334	0.329
NCI-H1915	1.05	1.13	1.1	1.11	1.1	0.552	0.516	0.508	0.536	0.517	1.03	1.12	1.09	1.13	1.13	0.526	0.534	0.512	0.524	0.566
NCI-H2023	0.689	0.721	0.821	0.877	0.678	0.545	0.604	0.607	0.557	0.796	0.687	0.635	0.698	0.636	0.736	0.393	0.447	0.363	0.34	0.412
NCI-H1650						0.699	0.616	0.694	0.5	0.754						0.423	0.322	0.412	0.313	0.486
NCI-H2170						0.898	0.85	0.896	0.739	0.799						0.494	0.438	0.385	0.444	0.435
NCI-H1792	0.539	0.441	0.676	0.645	0.556						0.575	0.629	0.527	0.557	0.504	0.654	0.635	0.592	0.564	0.654
NCI-H1648						0.37	0.514	0.316	0.34	0.363						0.215	0.291	0.219	0.273	0.235
ChaGo-K-1						0.727	0.754	0.797	0.746	0.737						0.88	0.947	0.972	0.863	1
Calu-6	0.946	1.05	1.04	0.983	0.944						1.08	0.97	1.06	1.01	1.07					
NCI-H1563	1.24	1.15	1.21	1.15	1.19						1.23	1.11	1.12	0.99	1.22					
EBC-1	0.926	0.928	0.907	1.19	1.18						0.935	0.874	0.884	0.904	1.1					
NCI-H1703	0.675	0.776	0.798	0.638	0.746						0.888	0.461	0.12	0.148	0.164					
SW 900						0.51		0.434	0.472	0.829						0.629		0.587	0.502	0.6
NCI-H1299	1.01	1.04	0.985	1.07	1.09						0.962	1.03	0.978	1	1.06					
NCI-H522						0.919	0.909	0.863	0.855	0.702						0.892	0.966	1.01	1.05	0.915
A549	0.655	0.657	0.659	0.677	0.622						0.606	0.606	0.595	0.529	0.573					
NCI-H596	1.03	1.03	1.03	1.17	1.06	0.764	0.627	0.576	0.558	0.575	1.15	1.1	1.24	1.16	1.03					
